Assay results: patent publication US8106003B2, “Peptides and methods for the treatment of inflammatory disease” (Auckland Uniservices Limited, priority 2004, dated 2012)
Entries after “also recorded” stand apart in the source; their conditions may differ. Non-standard residues stand in square brackets, D forms with d. Residues, ends and D or L forms follow the SMILES beside them. No end group written: not given here. *: point of attachment. Biotin = O=C1N[C@H]2[C@H](CS[C@H]2CCCCC(=O)*)N1

Assays:
[1] = tested on: kinase(s) in TK-1 cell lysate; experiment: Assay to test whether β7 cytoplasmic domain peptides bind a kinase(s); type: biochemical, mouse; settings: lysates of unactivated or AlF4−-activated TK-1 cells
Experimental: Assay to test whether β7 cytoplasmic domain peptides bind a kinase(s). TK-1 cells (3×10^6) were lysed in 1 ml of lysis buffer, and centrifuged at 12,000×g for 10 min at 4° C. Supernatants were precleared with 10 μl of Sepharose and then 10 μl of streptavidin-Sepharose. Cytoplasmic domain peptides were screened for their ability to associate with a kinase in lysates of TK-1 cells that were either left unactivated or had been activated with AlF4^−. Biotinylated peptides immobilized on 5 μl of streptavidin-Sepharose were incubated with 1 ml of lysis buffer containing 1 μl of cell lysate for 2 h at 4° C. with gentle shaking. The beads were washed thrice with ice-cold lysis buffer, once with kinase buffer, and were incubated with 30 μl kinase buffer and 0.5 to 1 μCi γ-ATP for 20 min at 30° C. Beads were washed five times, and radioactivity measured in a scintillation counter.

[2] = tested on: α4β7-mediated adhesion of TK-1 cells to VCAM-1; experiment: Cell adhesion assay: TK-1 cells to immobilised VCAM-1-Fc; type: cell-based, mouse; settings: for inhibition of TK-1 cell adhesion to VCAM-1: Mn++ or PMA-activated cells preincubated with increasing concentrations of peptide; for inhibition of adhesion of CMFDA-labeled TK-1 cells to immobilized human VCAM-1-Fc: R9-fused L and D analogs of YDRREY, fluorescence readout
Experimental: (§1) Cell adhesion assays. Lab-Tek 16-well glass slides (Nunc) or flat-bottomed 96-well maxisorb plates (Nunc) were coated with purified mouse MAdCAM-1-Fc, human VCAM-1-Fc, and human ICAM-1-Fc (70 to 100 μl of 5 to 10 μg/ml), and incubated at 4° C. overnight. Slides were washed once with PBS, and blocked with FCS for 2 h at room temperature. Slides were washed with Hanks balanced salt solution (HBSS) containing 10 mM Hepes. Cells were either left unlabeled or labeled with the fluorescent dye chloromethyl fluorescein diacetate (CMFDA; Molecular Probes, Oregon), and activated by resuspension in HBSS containing 10 mM Hepes supplemented with 2 mM Ca^++ and 2 mM Mn^++. Cells were alternatively activated with 50 ng/ml PMA, or by incubating with AlF4^− (10 mM NaF and 40 µM AlCl3). They were preincubated with peptides at different concentrations for 10 min at room temperature, checked for viability by trypan blue exclusion, and then 10^6 cells added to each coated well and left to adhere for 30 min at room temperature. Non-adherent unlabeled cells in 16-well glass slides were removed by twice dipping slides gently into PBS, and adherent cells fixed in PBS containing 2% (v/v) glutaraldehyde for at least 3 h. The number of adherent cells was determined by counting the number of adherent cells in four independent fields at 100× magnification under an inverted microscope. Alternatively, non-adherent CMFDA-labeled cells in 96-well plates were removed by inverse centrifugation at 70×g for 5 min into 50 mM Tris pH 7.5, 150 mM NaCl, 2 mM MnCl2, followed by gentle washing with a pipette. The fluorescence of CMFDA-labeled adherent cells was measured using a VICTOR 1420 multilabel counter (Wallac). Unless otherwise stated, experiments were repeated in triplicate, using duplicate wells.

[3] = tested on: TK-1 T cells; experiment: Peptide internalization and visualization in TK-1 cells; type: cell-based, mouse; settings: confocal microscopy; for uptake of penetratin-fused peptide into TK-1 cells: 50 μM peptide, 1 h, FITC-streptavidin; for internalization of R9-fused peptide by TK-1 cells: 30 min incubation
Experimental: Peptide internalization and visualization. […] After washing with PBS, cells were resuspended into PBS/1% FCS and cytocentrifuged onto glass slides. Cytospin smears were fixed with 4% paraformaldehyde in PBS for 15 min at room temperature, washed twice with PBS and permeabilized in PBS containing 0.2% Triton X-100 for 10 min. Biotinylated peptide was detected by incubating the slides with streptavidin-FITC (Sigma, Mo.), and visualized using a Leica TCS 4D confocal laser microscope. Images were processed using Leica Scanware™ 4.2 A software and Adobe Photoshop 5.0.

[4] = tested on: α4β7-mediated adhesion of TK-1 cells to RGD polymer; experiment: Cell adhesion assay: TK-1 cells to fibronectin-like polymer (RGD); type: cell-based, mouse; settings: for inhibition of TK-1 cell adhesion to RGD polymer: Mn++ or PMA-activated cells preincubated with increasing concentrations of peptide
[5] = tested on: α4β7-mediated adhesion of TK-1 cells to MAdCAM-1; experiment: Cell adhesion assay: TK-1 cells to immobilised MAdCAM-1-Fc; type: cell-based, mouse; settings: for inhibition of TK-1 cell adhesion to MAdCAM-1: Mn++, PMA or AlF4−-activated cells preincubated with increasing concentrations of peptide
Experimental: as §1

[6] = tested on: adhesion of H9 cells to VCAM-1; experiment: Cell adhesion assay: H9 cells to VCAM-1-Fc; type: cell-based, human; settings: Mn++ or PMA-activated H9 cells
Experimental: as §1

[7] = tested on: adhesion of H9 cells to MAdCAM-1; experiment: Cell adhesion assay: H9 cells to MAdCAM-1-Fc; type: cell-based, human; settings: Mn++ or PMA-activated H9 cells
Experimental: as §1

[8] = tested on: adhesion of H9 cells to RGD polymer; experiment: Cell adhesion assay: H9 cells to RGD polymer; type: cell-based, human; settings: data not shown
[9] = tested on: tyrosine phosphorylation of β7cyt; experiment: In vitro kinase assay of GST-β7cyt fusion protein with H9 cell lysate; type: biochemical, human; settings: genistein at 20 μM; H9 cell lysate 1:100
Experimental: Phosphorylation of recombinant GST fusion protein encoding β7cyt. H9 cells (5×10^7) were lysed at 4° C. in 1 ml of lysis buffer (10 mM Tris pH 7.4, 50 mM NaCl, 50 mM NaF, 1 mM sodium orthovanadate, 300 μg/ml PMSF, 20 μg/ml aprotinin, 10 μg/ml leupeptin, and 1% NP-40), centrifuged, and the supernatant precleared with GST-Sepharose. A GST fusion protein (50 μg) encoding the β7 subunit cytoplasmic domain bound to glutathione-Sepharose was incubated with trace amounts (1:100 dilution) of precleared lysate for 2 h at 4° C. The beads were washed thrice with lysis buffer and thrice with kinase buffer (10 mM Tris pH 7.4, 50 mM NaCl, 5 mM MgCl2, 5 mM MnCl2, 0.1 mM Na3VO4), and incubated in 30 μl kinase buffer containing 0.5 μCi [^32P] γATP for 20 min at 30° C. The sample was subjected to SDS-PAGE on a 10% acrylamide gel. The gel was stained with Coomassie Blue to visualize the GST fusion protein, and treated with 1 M KOH at 55° C. for 2 h to remove alkali-labile phosphate moieties on serine and threonine. The gel was dried, and subjected to autoradiography.

[10] = tested on: MAdCAM-1-induced clustering of α4β7 on TK-1 cells; experiment: Confocal microscopy analysis of receptor clustering; type: cell-based, mouse; settings: AlF4−-activated TK-1 cells, peptide 50 μM
Experimental: Confocal microscopy analysis of receptor clustering. TK-1 cells were incubated in the presence or absence of peptides (50 μM) for 1 h at room temperature, and cells were activated for 30 min at room temperature in HBSS containing 2 mM Ca++ and AlF4^−. Cells were incubated with MAdCAM-1-coated microspheres for 1 h on ice. They were washed with PBS containing 0.02% sodium azide, and fixed in 4% (w/v) paraformaldehyde in PBS for an additional 1 h. They were then stained with FITC-conjugated anti-β7 subunit M293 mAb, washed and fixed as above. Cells were mixed 1:1 with Citifluor glycerol/PBS solution, mounted on slides, and analyzed using a Leica TCS4D confocal laser scanning microscope equipped with an external argon-krypton laser (488 nm). Images were digitally recorded and printed on an Epson colour printer using Microsoft Power Point software.

[11] = tested on: H9 cells adhered to MAdCAM-1 and VCAM-1; experiment: Detachment of already adhered H9 cells (established focal adhesions); type: cell-based, human; settings: Mn++ and PMA-activated cells, incubated 1 h with peptide after adhesion
Experimental: (§2) FIG. 5: Illustrates peptide β7-2 blocks ligand-induced clustering of α4β7 at the cell surface, but cannot disrupt established focal adhesions. (A) Peptide β7-2 blocks ligand-induced clustering of α4β7. TK-1 cells were preincubated with either the β7-2 or β7-3 peptides, or no peptide, and activated with AlF4^−. Ligand-induced clustering of α4β7 was induced by addition of MAdCAM-1-Fc, and cluster formation after 30 min was determined by staining cells with FITC-conjugated M293 mAb (anti-β7 subunit), followed by confocal microscopy. […] TK-1 (B, D) and H9 (C, E) cells activated with Mn^++, and PMA were adhered to glass slides coated with MAdCAM-1-Fc (B, C), and VCAM-1-Fc (D, E), and then incubated for 1 h with peptide β7-2. Cells bound were counted, and represent the mean±SD from four fields. Experiments were performed in triplicate.
(§3) Cell adhesion assays. Lab-Tek 16-well glass slides (Nunc) or flat-bottomed 96-well maxisorb plates (Nunc) were coated with purified mouse MAdCAM-1-Fc, human VCAM-1-Fc, and human ICAM-1-Fc (70 to 100 μl of 5 to 10 μg/ml), and incubated at 4° C. overnight. […] The number of adherent cells was determined by counting the number of adherent cells in four independent fields at 100× magnification under an inverted microscope. […] The fluorescence of CMFDA-labeled adherent cells was measured using a VICTOR 1420 multilabel counter (Wallac). […]

[12] = tested on: TK-1 cells adhered to MAdCAM-1 and VCAM-1; experiment: Detachment of already adhered TK-1 cells (established focal adhesions); type: cell-based, mouse; settings: Mn++ and PMA-activated cells, incubated 1 h with peptide after adhesion
Experimental: as §2, §3

[13] = tested on: TK-1 T cells; type: cell-based, mouse

Molecule	formation of a phosphorylated complex (kinase association / phosphorylation of immobilized peptide) [1]	inhibition of TK-1 cell adhesion to VCAM-1 [2]	uptake of penetratin-fused peptide into TK-1 cells [3]	inhibition of TK-1 cell adhesion to RGD polymer [4]	inhibition of TK-1 cell adhesion to MAdCAM-1 [5]	inhibition of H9 cell adhesion to VCAM-1 [6]	inhibition of H9 cell adhesion to MAdCAM-1 [7]	further results
β7-7: β7cyt residues 729-735 (SEQ ID NO. 24) fused to penetratin (Biotin-RQIKIWFQNRRMKWKKRLSVEIY; not fully specified)	did not form a phosphorylated complex	completely ineffective	taken up	completely ineffective	completely ineffective	–	–	–
YDRREY [β7-8] (Biotin-RQIKIWFQNRRMKWKKYDRREY; not fully specified)	formed a phosphorylated complex	retained the ability to block	taken up	retained the ability to block	retained the ability to block	also blocked	also blocked	inhibition of H9 cell adhesion to RGD polymer [8]: also blocked
YDRREY [β7-12]	–	–	–	–	inhibited	–	–	inhibition of adhesion of CMFDA-labeled TK-1 cells to immobilized human VCAM-1-Fc [2]: inhibit; internalization of R9-fused peptide by TK-1 cells [3]: rapidly internalized
QLNWKQDSNPLYKSAITTT [β7-4]	formed a phosphorylated complex	–	taken up	–	–	completely ineffective	completely ineffective	–
O=c1c(-c2ccc(O)cc2)coc2cc(O)cc(O)c12 [genistein]	–	–	–	–	–	–	–	blockade of phosphorylation of β7cyt [9]: completely blocked
β7-5: extreme C-terminal control peptide of β7cyt (SEQ ID NO. 23) fused to penetratin (Biotin-RQIKIWFQNRRMKWKKTTTINPRFQEADSPTL; not fully specified)	did not form a phosphorylated complex	–	taken up	–	–	completely ineffective	completely ineffective	–
β7-11: peptide β7-12 truncated to remove tyrosine 740 (SEQ ID NO. 27), fused to r9 (Biotin-[dR][dR][dR][dR][dR][dR][dR][dR][dR]YDRRE)	formed a phosphorylated complex	–	–	–	not able to inhibit	–	–	–
β7-10: peptide β7-12 truncated to remove tyrosine 735 (SEQ ID NO. 26), fused to r9 (Biotin-[dR][dR][dR][dR][dR][dR][dR][dR][dR]DRREY)	formed a phosphorylated complex	–	–	–	not able to inhibit	–	–	–
RLSVEIYDRREY [β7-2]	–	abrogated	taken up	abrogated	abrogated	blocked	blocked	blockade of TK-1 cell-binding to VCAM-1 ([2]; 100 μm of peptide): almost completely blocked; blockade of MAdCAM-1-induced clustering (redistribution) of α4β7 at the cell surface [10]: completely blocked; also recorded: blocks; reduction in TK-1 cell binding to the RGD polymer ([4]; 100 μm of peptide): 50%; detachment of H9 cells already adhered to MAdCAM-1 and VCAM-1 [11]: not able to detach; also recorded: cannot disrupt focal adhesions to detach cells; detachment of TK-1 cells already adhered to MAdCAM-1 and VCAM-1 [12]: not able to detach; also recorded: cannot disrupt focal adhesions to detach cells; blockade of TK-1 cell-binding to MAdCAM-1 ([5]; 100 μm of peptide): almost completely blocked
N=C(N)NCCC[C@@H](NC(=O)CCCC[C@@H]1SC[C@@H]2NC(=O)N[C@@H]21)C(=O)N[C@H](CCCNC(=N)N)C(=O)N[C@H](CCCNC(=N)N)C(=O)N[C@H](CCCNC(=N)N)C(=O)N[C@H](CCCNC(=N)N)C(=O)N[C@H](CCCNC(=N)N)C(=O)N[C@H](CCCNC(=N)N)C(=O)N[C@H](CCCNC(=N)N)C(=O)N[C@H](CCCNC(=N)N)C(=O)N[C@H](Cc1ccc(O)cc1)C(=O)N[C@H](CC(=O)O)C(=O)N[C@H](CCCNC(=N)N)C(=O)N[C@H](CCCNC(=N)N)C(=O)N[C@H](CCC(=O)O)C(=O)N[C@H](Cc1ccc(O)cc1)C(=O)O [β7-13] (Biotin-[dR][dR][dR][dR][dR][dR][dR][dR][dR][dY][dD][dR][dR][dE][dY]-OH; N-terminus and C-terminus assumed)	–	–	–	–	–	–	–	cytotoxic concentration ([13]; 2 h): exceeding 50 μM; cell death ([13]; at 100 μM, data not shown): 50%; inhibition of adhesion of CMFDA-labeled TK-1 cells to immobilized human VCAM-1-Fc [2]: inhibit; inhibition of adhesion of CMFDA-labeled TK-1 cells to immobilized human VCAM-1-Fc ([2]; listed as D-amino acid form): as equally potent as the L-enantiomer; internalization of R9-fused peptide by TK-1 cells [3]: internalized
